Results from patent US20060052341A1, “Control of a biological function” (priority 2002, published 2006).
Where two headings read alike, the source gives them in different places.

Tests used:
[1] = 24 mg controlled release implants, non-pregnant heifers; cited from earlier work
in vivo = settings: female, cattle
Text: In the urine, up to 30% of an administered dose appears as a conjugate of glucuronic acid and pregnanediol.

[2] = cited from earlier work
[3] = rat, in vivo; cited from earlier work
[4] = prior art, cited from earlier work
[5] = Serum oestradiol after intravaginal release of oestradiol 17β/cyclodextrin tablets; oestradiol half life; type: in vivo, cattle
Description: However, oestradiol benzoate is only one of the preferred oestrogen component of the present invention.
For the purpose of the present invention as exampled via the control of oestrus in cattle, release of oestrogen tablets into the vagina was carefully timed and recorded. […] A 1 mg dose produced maximum mean values of 130-180 pg/ml at 100-130 minutes after treatment, while a 2 mg dose led to maxima of 180 to >250 pg at 120-150 minutes.
A 1 mg dose produced maximum mean values of 130-180 pg/ml at 100-130 minutes after treatment, while a 2 mg dose led to maxima of 180 to >250 pg at 120-150 minutes, as illustrated in FIG. 11.

[6] = within 6 hours of ingesting 1.5 g, human subjects; cited from earlier work
[7] = treated cows; cited from earlier work
dairy cows = settings: seven hundred and thirty seven dairy cows, three years; cited from earlier work
cattle = experiment: Luteolysis studies with intravaginal sodium cloprostenol; type: in vivo
Description: In effecting the desired delivery regime for the present invention as directed to use in controlling bestrus in cattle, a number of studies were conducted. […] There is no reliable blood test for sodium cloprostenol. The best test is to assess the success of luteolysis following application of sodium cloprostenol.

[8] = 1 mg oestradiol benzoate by intramuscular injection
[9] = vaginal administration of 10 mg oestradiol benzoate
[10] = 7.2 mg oestradiol 17β intravaginally
[11] = 1 mg dose, intravaginal tablet with cyclodextrin carrier

C[C@]12CC[C@@H]3c4ccc(O)cc4CC[C@H]3[C@@H]1CC[C@@H]2O [oestradiol]
oestrogen levels in tissues of slaughtered animals [1]: not significantly different from untreated animals

CC(=O)[C@H]1CC[C@H]2[C@@H]3CCC4=CC(=O)CC[C@]4(C)[C@H]3CC[C@]12C [progesterone]
half-life (in vivo): ~20 min
half-life of progesterone in blood ([2]; in vivo): only a few minutes
LD100 [3]: 327.1 mg/kg

C[C@]12CC[C@@H]3c4ccc(OC(=O)c5ccccc5)cc4CC[C@H]3[C@@H]1CC[C@@H]2O [oestradiol benzoate, oestra-1,3,5 (10)-triene-3,17β-diol 3-benzoate]
peak plasma oestradiol concentration [4, 8]: 8 to 13 pg/mL
time of peak plasma oestradiol [4, 8]: approximately 2 hours
peak plasma oestradiol concentration [4, 9]: 2 to 5 pg/mL
time of peak plasma oestradiol [4, 9]: 2 to 48 h
half life ([5]; bovine, in vivo): longer than two to three minutes

OCc1ccccc1 [benzyl alcohol]
dose eliminated in the urine as hippuric acid [6]: 75% to 85%

C[C@]12CC[C@@H]3c4ccc(O)cc4CC[C@H]3[C@@H]1CC[C@@H]2O [oestradiol 17β, oestra-1,3,5 (10)-triene-3,17β-diol]
peak plasma oestradiol concentration ([4]; 7.2 mg oestradiol 17β intravaginally with cyclodextrin): 10 to 20 pg/mL
duration of elevated plasma levels [4, 10]: at least 24 hours
time of peak plasma oestradiol [4, 10]: four
maximum mean serum oestradiol [5, 11]: 130 to 180 pg/mL
time of maximum serum oestradiol after treatment [5, 11]: 100 to 130 min
time of maxima of serum oestradiol ([5]; 2 mg dose, intravaginal tablet with cyclodextrin carrier): 120 to 150 min
time for serum oestradiol to reach peak values from basal levels ([5]; intravaginal oestrogen tablets): 2 to 3 h
half life ([5]; oestradiol without the benzoate component): only a few minutes

CCCCC[C@H](O)/C=C/[C@@H]1[C@@H](C/C=C\CCCC(=O)O)[C@@H](O)C[C@H]1O [prostaglandin PGF2α, prostaglandin F2α]
half-life ([2]; rapid breakdown): a few minutes
half-life in the blood [7]: three

O=C(O)CCC/C=C\CC1C(O)CC(O)C1/C=C/C(O)COc1cccc(Cl)c1 (stereo not drawn) [sodium cloprostenol, cloprostenol sodium]
side effects on subsequent fertility (dairy cows): no chronic side effects on subsequent fertility
response to treatment compared with prior art intramuscular injection of prostaglandin alone (cattle; HPβCD carrier, increased dose rate): equivalent response
luteolytic effect (cattle; intravaginal, without a suitable carrier, at the level dosed): not having a complete luteolic effect
luteolytic effect (cattle; same dose administered with HPβCD): incomplete luteolysis
